Assay results reported in patent US20240350494A1, “THERAPEUTIC MODULATION OF INTEGRINS” (Pliant Therapeutics, Inc., priority 2021, published 2024).
“Also recorded” adds a separate entry of the source.

Columns and labels:
COL1A1 expression = assay: Precision cut lung slices from human IPF explants, COL1A1 expression; type: cell-based
Description: Explanted lung tissue was obtained from human IPF subjects and inflated with agarose as described in the preceding examples. Biopsy cores were obtained from the agarose-inflated lung tissue. The biopsy cores were subjected to precision slicing to obtain several hundred μm thick. Individual slices were distributed in a multiwell culture plate and cultured for […] under control (DMSO) and test compound conditions. The viability of the slices over the course of culturing was confirmed by WST-1 assay of mitochondrial activity.
PCLS from 5-7 idopathic pulmonary fibrosis (IPF) lung tissue samples were cultured for seven days with one of: DMSO; Compound 5 at 200 nM; nintedanib at 75 nM; pirfenidone at 50 μm; a combination of Compound 5 at 200 nM and nintedanib at 75 nM; a combination of Compound 5 at 200 nM and pirfenidone at 50 μm; or an Alk5 inhibitor at 1 μm. […] FIG. 4D is a bar graph showing relative expression of COL1A1 in precision cut lung slices (PCLS) from idopathic pulmonary fibrosis (IPF) lung tissue upon exposure to Compound 5, clinical standard of care compounds nintedanib (Nin) and pirfenidone (Pirf), and an ALK5 inhibitor, all versus DMSO control.
PCLS from a single IPF lung tissue sample were cultured for seven days with Compound 5 at concentrations of 200 μM, 2 nM, 60 nM, 200 nM, and 1 μM, along with 0.1% DMSO control and an Alk5 inhibitor at 1 μM. […] COL1A1 expression is also graphed for the PCLS in the presence of 0.1% DMSO control, and an Alk5 inhibitor at 1 μM.

[1] = Phase 2a trial in IPF, pharmacokinetics; type: in vivo, human
Description: Overall Summary of Safety Pharmacokinetics.

PRO-C3 and PRO-C6 = assay: Phase 2a trial in IPF, serum biomarkers of collagen synthesis; type: in vivo, human; settings: IPF participants
Description: FIG. 27 (PRO—C3 Type III collagen synthesis neoepitope) and FIG. 28 (PRO—C6 TypeVI collagen synthesis neoepitope) compare serum biomarkers of collagen synthesis in Compound 5 groups versus placebo groups. Compound 5 decreased serum biomarkers of collagen synthesis relative to placebo. […] LS=Least Squares, SEM=Standard Error of Mean.

[2] = system: Human bronchial epithelial cells; assay: LAP adhesion assay, normal human bronchial epithelial cells (express αVβ6); type: cell-based; settings: cell index (electrical impedance), xCELLigence; FIG. 1A
Description: Two latency associated peptide (LAP) adhesion binding assays were devised using primary human lung cells, including normal (healthy) human bronchial epithelial cells and human lung fibroblasts (healthy and IPF).
Human bronchial epithelial cells are known to express αVβ6 integrin in culture. Human bronchial epithelial cells were prepared for the assay by dissociation with trypsin/EDTA and were then seeded at 20,000 cells per well on 96 well plates (ACEA Bioscience E-plate View, Acea Biosciences; San Diego, CA) previously coated with 5 μg/ml of recombinant human LAP (R&D Systems; Minneapolis, MN) and blocked with 4% bovine serum albumin. Cell index (electrical impedance) was measured to assess cell attachment/spreading every 3 minutes for 24 hours at 37° C./5% CO2 using the xCELLigence RTCA MP Instrument (Acea Biosciences; San Diego, CA).

lung Col1a1 expression = assay: Precision cut lung slices, chronic bleomycin exposure, Col1a1 expression; type: cell-based, mice (C57BL/6); settings: 7 days culture
Description: (§1) Mice (C57BL/6) were administered 3 U/kg of bleomycin (Teva Pharmaceuticals; North Wales, PA) on Day 0 and 1 U/kg of bleomycin on days 14, 28, 42 and 56 via oropharyngeal aspiration while under anesthesia. At day 70, 14 days after the final bleomycin insult, precision cut lung slices were obtained. Following euthanization, 2% low gelling temp agarose was injected into the mouse lungs via the trachea. […] The lobes were then subjected to precision slicing to obtain samples for culture using a microtome (Compresstome VF-300-OZ, Precisionary; Greenville, NC). Individual slices were distributed in a multiwell culture plate and cultured for 7 days under control (DMSO) and test compound conditions. The viability of the slices over the course of culturing was confirmed by WST-1 assay of mitochondrial activity.
During the culture period, slices in the control group were treated with DMSO and slices in the test group were treated with a DMSO solution of one of: the selective antibody αVβ6 inhibitor 3G9; the αVβ1-selective small molecule inhibitor; a combination of the selective antibody αVβ6 inhibitor 3G9 and the αVβ1-selective small molecule inhibitor; compound 5; and the small molecule ALK5 inhibitor. The selective αVβ1 and αVβ6 integrin inhibitors were analyzed at ≥their respective IC90 concentrations for inhibition of TGF-beta activation. Compound 5 was run at approximate IC50 for inhibition of TGF-beta activation by αVβ6.
as §1, with “following” for “after”
During the culture period, slices in the control group were treated with DMSO and slices in the test group were treated with a DMSO solution of one of: compound 5; nintedanib; pirfenidone; a combination of nintedanib and compound 5; a combination of pirfenidone and compound 5; or the small molecule ALK5 inhibitor. Compound 5 was […] effective to equal or exceed its respective IC50 values at αVβ6 and αVβ1. […] Nintendanib and pirfenidone were analyzed at concentrations 10× their reported therapeutic concentrations.

[3] = Phase 2a trial in IPF, safety and tolerability; type: in vivo, human
[4] = of the 67 patients treated with Compound 5

COCCN(CCCCc1ccc2c(n1)NCCC2)CC[C@H](Nc1ncnc2ccccc12)C(=O)O [Compound 5, (S)-4-((2-methoxyethyl)(4-(5,6,7,8-tetrahydro-1,8-naphthyridin-2-yl)butyl)amino)-2-(quinazolin-4-ylamino)butanoic acid]
lung Col1a1 expression, normalized to DMSO control slices (COL1A1 expression; human IPF slices, 3 days, 3G9 ≥400 ng/mL, compound 5 179 nM, ALK5 inhibitor 1 μM, FIG. 4C): substantial, statistically significant (p<0.01 vs vehicle) decrease | COL1A1 expression, concentration dependence (COL1A1 expression; single IPF sample, seven days, 200 μM, 2 nM, 60 nM, 200 nM, 1 μM, FIG. 4E): dose dependent reduction | dose proportionality of plasma concentrations ([1]; IPF participants, 40-160 mg QD, sparse sampling): generally dose proportional increases; also recorded: increased approximately proportionally with dose | pharmacokinetic profile ([1]; IPF patients, 12-week treatment): favorable pharmacokinetic profile | change from baseline of serum PRO-C3 (type III collagen synthesis) vs. placebo (PRO-C3 and PRO-C6; FIG. 27): decreased; also recorded: reduced in participants receiving Compound 5 vs. placebo (not significant) | change from baseline of serum PRO-C6 (type VI collagen synthesis) vs. placebo (PRO-C3 and PRO-C6; FIG. 28): decreased; also recorded: reduced in participants receiving Compound 5 vs. placebo (not significant) | inhibition of normal bronchial epithelial cell adhesion to LAP [2]: substantially inhibited | lung Col1a1 expression, normalized to DMSO control slices (lung Col1a1 expression; Compound 5 at approximate IC50 (αVβ6), selective inhibitors at ≥IC90, ALK5 inhibitor at 10× IC50, FIG. 3B): decreased lung Col1a1 expression substantially | decrease of lung Col1a1 expression compared with combined 3G9 and αVβ1-selective inhibitor (lung Col1a1 expression; FIG. 3B): to a greater extent than combined administration | lung slice Col1a1 expression compared to DMSO vehicle control slices (lung Col1a1 expression; nintedanib and pirfenidone at 10× therapeutic concentrations, ALK5 inhibitor at 10× IC50, FIG. 4A): substantial, statistically significant (p<0.01 vs vehicle) decrease | discontinuations due to adverse events ([3]; 12 weeks, 40-160 mg QD): no discontinuations due to adverse events; also recorded: No premature discontinuations due to AEs; also recorded: no participants discontinued Compound 5 due to TEAE | most frequent TEAE ([3]; 12 weeks, 40-160 mg QD): diarrhea but only seen in patients on standard of care | severity of most treatment emergent adverse events (TEAE) ([3]; 12 weeks, 40-160 mg QD): mild or moderate in severity | treatment related deaths or drug related serious adverse events (SAE) ([3]; 12 weeks, 40-160 mg QD): No treatment related deaths or drug related serious adverse events (SAE) were reported; also recorded: No deaths or drug-related SAEs; also recorded: no treatment-emergent serious adverse events (SAEs) were observed; also recorded: no treatment related SAEs or deaths | tolerability ([3]; IPF patients, 40, 80, 160 mg once daily, 12 weeks): safe and well tolerated | patients who completed 12 weeks of treatment, number [3, 4]: 65 | patients who completed 12 weeks of treatment, proportion [3, 4]: 97%
